In ChEMBL document CHEMBL2034885, “Diverse heterocyclic scaffolds as allosteric inhibitors of AKT” (J Med Chem, 2012):
Converted amounts (≈) assume the structure as drawn. The source made the active and inactive calls. The calls are words filed in the database; no cut-off is given here.

What was measured:
[1] = biological target: RAC-alpha serine/threonine-protein kinase (Homo sapiens, UniProt P31749); experiment: Inhibition of AKT1
[2] = Inhibition of AKT phosphorylation at Ser473 in human MDA-MB-468 cells; type: cell-based
[3] = Inhibition of AKT phosphorylation at Thr308 in human BT474 cells; type: cell-based; conditions: BT-474
[4] = Lipophilicity, log D of the compound; conditions: octanol/water
Hepatocyte [5] = experiment: Intrinsic clearance in Han Wistar rat hepatocytes assessed per 10^-6 cells
[6] = Volume of distribution at steady state in Han Wistar rat; type: ADME, organism-based; conditions: in vivo, read-out: Vdss
[7] = Oral bioavailability in Han Wistar rat; type: ADME, organism-based; conditions: in vivo
Hepatocyte [8] = experiment: Intrinsic clearance in human hepatocytes assessed per 10^-6 cells
[9] = Blood clearance in iv dosed Han Wistar rat
[10] = Aqueous solubility at pH 7.4
[11] = Fraction unbound in Han Wistar rat plasma; type: ADME, cell-free
BT474c [12] = experiment: Inhibition of AKT phosphorylation at Ser473 in human BT474c cells at 0.01 uM to 10 uM after 24 hrs; type: cell-based
Mus musculus [13] = experiment: Inhibition of AKT phosphorylation at S473 in human BT474c cells xenografted in nude mouse at 100 mg/kg, po after 4 hrs; type: functional, organism-based; parameters: dose 100 mg/kg
Mus musculus [14] = experiment: Inhibition of AKT phosphorylation at S473 in human BT474c cells xenografted in nude mouse at 100 mg/kg, po after 24 hrs; type: functional, organism-based; parameters: dose 100 mg/kg
Mus musculus [15] = experiment: Inhibition of AKT phosphorylation at S473 in human BT474c cells xenografted in nude mouse at 200 mg/kg, po after 24 hrs; type: functional, organism-based; parameters: dose 200 mg/kg
BT474c [16] = experiment: Antitumor activity against human BT474c cells xenografted in po dosed nude mouse assessed as tumor growth inhibition administered qd for 21 days; type: functional, organism-based
Mus musculus [17] = experiment: Inhibition of AKT-mediated GSK3beta phosphorylation in human BT474c cells xenografted in nude mouse at 200 mg/kg, po after 4 hrs; type: functional, organism-based; parameters: dose 200 mg/kg
BT474c [18] = experiment: Inhibition of AKT phosphorylation at Thr308 in human BT474c cells at 0.01 uM to 10 uM after 24 hrs; type: cell-based
Mus musculus [19] = experiment: Inhibition of AKT-mediated GSK3beta phosphorylation in human BT474c cells xenografted in nude mouse at 100 mg/kg, po after 4 hrs; type: functional, organism-based; parameters: dose 100 mg/kg
BT474c [20] = experiment: Inhibition of AKT-mediated PRAS40 phosphorylation at T246 in human BT474c cells at 0.01 uM to 10 uM after 24 hrs; type: cell-based
BT474c [21] = experiment: Antitumor activity against human BT474c cells xenografted in nude mouse assessed as tumor growth inhibition at 200 mg/kg, po qd for 21 days; type: functional, organism-based; parameters: dose 200 mg/kg
Mus musculus [22] = experiment: Inhibition of AKT-mediated GSK3beta phosphorylation in human BT474c cells xenografted in nude mouse at 200 mg/kg, po after 24 hrs; type: functional, organism-based; parameters: dose 200 mg/kg
BT474c [23] = experiment: Inhibition of AKT-mediated ribosomal S6 protein phosphorylation at S235/236 in human BT474c cells at 0.01 uM to 10 uM after 24 hrs; type: cell-based
Mus musculus [24] = experiment: Inhibition of AKT phosphorylation at S473 in human BT474c cells xenografted in nude mouse at 200 mg/kg, po after 4 hrs; type: functional, organism-based; parameters: dose 200 mg/kg
Mus musculus [25] = experiment: Inhibition of AKT-mediated GSK3beta phosphorylation in human BT474c cells xenografted in nude mouse at 100 mg/kg, po after 24 hrs; type: functional, organism-based; parameters: dose 100 mg/kg

RAC-alpha serine/threonine-protein kinase, sequence (P31749 whole entry): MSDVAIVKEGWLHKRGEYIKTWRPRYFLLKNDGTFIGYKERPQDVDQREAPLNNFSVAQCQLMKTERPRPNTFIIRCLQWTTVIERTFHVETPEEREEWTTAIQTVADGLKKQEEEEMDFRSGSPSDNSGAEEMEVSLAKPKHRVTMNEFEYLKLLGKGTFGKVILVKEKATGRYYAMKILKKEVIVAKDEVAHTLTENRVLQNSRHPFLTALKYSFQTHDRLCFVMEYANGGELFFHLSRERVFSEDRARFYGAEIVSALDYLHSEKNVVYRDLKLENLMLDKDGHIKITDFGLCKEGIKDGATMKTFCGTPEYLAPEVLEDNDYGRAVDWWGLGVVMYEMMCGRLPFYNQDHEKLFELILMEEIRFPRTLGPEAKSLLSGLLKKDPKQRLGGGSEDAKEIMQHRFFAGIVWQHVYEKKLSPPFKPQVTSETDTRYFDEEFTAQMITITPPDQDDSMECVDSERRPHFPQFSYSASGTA

SMILES | IC50 [1] | IC50 [2] | IC50 [3] | logD [4] | solubility [10] | also measured
NC1(c2ccc(-c3c(-c4ccccc4)ccc4ncnn34)cc2)CCC1 | 2140 nM | 293 nM | 369 nM | – | – | –
Cn1cnc2c(-c3ccc(C4(N)CCC4)cc3)c(-c3ccccc3)ccc21 | 2800 nM | 359 nM | 343 nM | – | – | –
NC1(c2ccc(-c3ncc4ncccc4c3-c3ccccc3)cc2)CCC1 | 188 nM | 47 nM | 89 nM | – | – | –
CCn1cnc2cnc(-c3ccc(C4(N)CCC4)cc3)c(-c3ccccc3)c21 | 8980 nM | 1540 nM | 1200 nM | 2 | – | –
NC1(c2ccc(-c3c(-c4ccccc4)ccn4ccnc34)cc2)CCC1 | 1810 nM | 388 nM | 324 nM | – | – | –
NC1(c2ccc(-c3ncc4nccn4c3-c3ccccc3)cc2)CCC1 | 1260 nM | 365 nM | 386 nM | 1.3 | 2500 µM (≈ 851 µg/mL) | CLH (Hepatocyte [5]): 16 µL/min; Vd [6]: 10.3 L/kg; bioavailability [7]: 30%; CLH (Hepatocyte [8]): 3 µL/min; clearance ([9]; whole blood): 62 mL/min/kg; fraction unbound [11]: 0.371
NC1(c2ccc(-c3ncc4cccn4c3-c3ccccc3)cc2)CCC1 | 787 nM | 483 nM | 604 nM | 2.5 | 1500 µM (≈ 509 µg/mL) | –
NC(=O)c1ccn2c(-c3ccccc3)c(-c3ccc(C4(N)CCC4)cc3)nc2c1 | 348 nM | 92 nM | 82 nM | 2 | 110 µM (≈ 42.1 µg/mL) | –
NC1(c2ccc(-c3c(-c4ccccc4)ccc4ccnn34)cc2)CCC1 | 2720 nM | 824 nM | 1190 nM | – | – | –
NC1(c2ccc(-n3c(-c4ccccc4)nc4ccccc4c3=O)cc2)CCC1 | 41700 nM | 7730 nM | 5900 nM | 1.6 | 1400 µM (≈ 514 µg/mL) | –
NC1(c2ccc(-c3nn4ccccc4c3-c3ccccc3)cc2)CCC1 | 199 nM | 151 nM | 205 nM | – | – | Vd [6]: 8 L/kg; bioavailability [7]: 0%; clearance ([9]; whole blood): 171 mL/min/kg
NC1(c2ccc(-c3nc4ccccc4cc3-c3ccccc3)cc2)CCC1 | 243 nM | 250 nM | 557 nM | 3.6 | 290 µM (≈ 102 µg/mL) | CLH (Hepatocyte [5]): 148 µL/min; Vd [6]: 3.1 L/kg; bioavailability [7]: 0%; clearance ([9]; in vivo): 26 mL/min/kg; fraction unbound [11]: 0.011
NC(=O)c1cnc(-c2ccc(C3(N)CCC3)cc2)c(-c2ccccc2)c1 | 1040 nM | 322 nM | 422 nM | – | – | inhibition (BT474c [12]): Active; inhibition (Mus musculus [13]): Active; CLH (Hepatocyte [5]): 4 µL/min; inhibition (Mus musculus [14]): Active; inhibition (Mus musculus [15]): Active; Vd [6]: 11.1 L/kg; bioavailability [7]: 48%; CLH (Hepatocyte [8]): 3 µL/min; growth inhibition (GI) (BT474c [16]): Dose-dependent effect; clearance ([9]; whole blood): 21 mL/min/kg; inhibition (Mus musculus [17]): Active; inhibition (BT474c [18]): Active; inhibition (Mus musculus [19]): Active; inhibition (BT474c [20]): Active; growth inhibition (GI) (BT474c [21]): Active; inhibition (Mus musculus [22]): Active; inhibition (BT474c [23]): Active; fraction unbound [11]: 0.419; inhibition (Mus musculus [24]): Active; inhibition (Mus musculus [25]): Active
NC1(c2ccc(-c3ncc4ccncc4c3-c3ccccc3)cc2)CCC1 | 193 nM | 98 nM | 54 nM | 2.2 | 1400 µM (≈ 492 µg/mL) | fraction unbound [11]: 0.105
NC1(c2ccc(-c3nc4ccccc4c(=O)n3-c3ccccc3)cc2)CCC1 | 7020 nM | 2080 nM | 2620 nM | 1.5 | 2300 µM (≈ 845 µg/mL) | –
NC1(c2ccc(-c3nn4cccc4cc3-c3ccccc3)cc2)CCC1 | 926 nM | 1230 nM | 2430 nM | 3.3 | 27 µM (≈ 9.16 µg/mL) | –
NC1(c2ccc(-c3c(-c4ccccc4)ncc4nccn34)cc2)CCC1 | 5400 nM | 2480 nM | 2180 nM | 1.7 | 2500 µM (≈ 851 µg/mL) | –
NC1(c2ccc(-c3c(-c4ccccc4)ccn4ncnc34)cc2)CCC1 | 2670 nM | 661 nM | 479 nM | 1.7 | 1000 µM (≈ 340 µg/mL) | –
NC1(c2ccc(-c3nn4ccc(=O)nc4cc3-c3ccccc3)cc2)CCC1 | 8660 nM | 2170 nM | 1620 nM | 0.2 | 1900 µM (≈ 700 µg/mL) | –
NC1(c2ccc(-c3nc4ccccn4c3-c3ccccc3)cc2)CCC1 | 387 nM | 124 nM | 182 nM | 2.8 | 1900 µM (≈ 645 µg/mL) | CLH (Hepatocyte [5]): 291 µL/min; Vd [6]: 10.3 L/kg; bioavailability [7]: 36%; CLH (Hepatocyte [8]): 18 µL/min; clearance ([9]; whole blood): 41 mL/min/kg; fraction unbound [11]: 0.068
NC1(c2ccc(-c3ncc4ccccc4c3-c3ccccc3)cc2)CCC1 | 301 nM | 179 nM | 535 nM | – | – | –
NC1(c2ccc(-c3ncc4cccnc4c3-c3ccccc3)cc2)CCC1 | 465 nM | 104 nM | 167 nM | 1.7 | 2000 µM (≈ 703 µg/mL) | –
NC1(c2ccc(-c3ncc4cnccc4c3-c3ccccc3)cc2)CCC1 | 117 nM | 37 nM | 48 nM | 2.2 | 2200 µM (≈ 773 µg/mL) | Vd [6]: 0.3 L/kg; CLH (Hepatocyte [8]): 300 µL/min; clearance ([9]; whole blood): 40 mL/min/kg; fraction unbound [11]: 0.13
NC1(c2ccc(-c3nn4ccnc4cc3-c3ccccc3)cc2)CCC1 | 528 nM | 216 nM | 391 nM | – | – | CLH (Hepatocyte [5]): 274 µL/min; Vd [6]: 2.3 L/kg; bioavailability [7]: 0%; CLH (Hepatocyte [8]): 8 µL/min; clearance ([9]; in vivo): 57 mL/min/kg; fraction unbound [11]: 0.123
